# Measured values as given in US5079257A, “Indoloquinone compounds” (priority 1986, dated 1992).
# Where two headings read alike, the source gives them in different places.
# Assays:
# Assay type in all cases: cell-based
# [1] = tested on: Renal tumour line; test: Colony inhibition in vitro, continuous drug exposure (Freiburg); settings: Homo sapiens, read-out: colony formation treated/control (T/C), Renal; for activity at 1 µg/mL: 1.0 μg/ml
# Experimental: (§1) Three indoloquinones were tested at the University of Freiburg with respect to their in vitro inhibition of colony formation of the following five human tumour cell lines: lung-NSCLC, breast, renal and two colon lines.
# [2] = tested on: Colon 2 tumour line; test: as above; settings: Homo sapiens, read-out: colony formation treated/control (T/C), Colon 2; for activity at 1 µg/mL: 1.0 μg/ml
# Experimental: as §1
# [3] = tested on: Mammary (breast) tumour line; test: as above; settings: Homo sapiens, read-out: colony formation treated/control (T/C), Mammary; for activity at 1 µg/mL: 1.0 μg/ml
# Experimental: as §1
# [4] = tested on: Colon 1 tumour line; test: as above; settings: Homo sapiens, read-out: colony formation treated/control (T/C), Colon 1; for activity at 1 µg/mL: 1.0 μg/ml
# Experimental: as §1
# [5] = tested on: R-1 cells (Rhabdomyosarcoma Cells); test: R-1 activity (bioliquid assay), cytotoxicity; settings: Rhabdomyosarcoma cell
# Summary of the method: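 Rhabdomyosarcoma R-1 cells (~10^6 per dish) in Dulbecco's medium with 10% FCS were exposed to drug solution, which was then replaced by fresh medium. Cells were trypsinized after 48 hours and counted electronically.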
# [6] = tested on: T 24 cells; bladder carcinoma; test: In vitro panel of human tumour lines (TNO): T 24; settings: about 72 hours; note: key: -: no inhibition of cell growth; +: total cell-kill
# Summary of the method: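 Cells (5×10^4/ml, Dulbecco's medium + 10% FCS) grafted 48 h, then continuously exposed to compound (Hanks'/ethanol, final ethanol <1%) for about 72 h at 37°C, 10% CO2. Crystal violet fixation/staining; inhibiting concentration estimated qualitatively over increasing doses.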
# [7] = tested on: L1210 cells; test: Lowest active dose (L1210; bioliquid assay); settings: Mus musculus
# Excerpt: The indoloquinones II (formula II) have been tested in respect of their cytotoxic activity against L1210 cells and R-1 cells (Rhabdomyosarcoma Cells) in a bioliquid assay at the department of oncology of the Free University of Amsterdam (Table I). In addition to this seven compounds (E.O. 1, E.O. 2, E.O. 4, E.O. 7, E.O. 9, E.O. 16 and E.O. 17) have been tested on L1210 activity in a clonogenic assay at TNO, Rijswijk. Further, the lowest active doses of the compounds E.O. 1, E.O. 2, E.O. 4 and E.O. 9 have been determined at TNO Rijswijk, according to the method described by Lamberts et al. [Oncology, 40, 301 (1983)]. (Table II). Eight indoloquinones (E.O. 1, E.O. 2, E.O. 4, E.O. 4A, E.O. 8, E.O. 9, E.O. 33 and E.O. 35) have been tested in a panel of five human tumour lines (TNO Rijswijk; Table III). From the latter group three indoloquinones (E.O. 1, E.O. 4 and E.O. 9) have been selected for a cytotoxicity study, involving five slowly growing human tumour lines (University of Freiburg; Table IV).
# The lowest active doses for the compounds E.O. 1, E.O. 2, E.O. 4 and E.O. 9 were determined according to the method described by Lamberts et al. [Oncology, 40, 301 (1983)]. In this method, L1210 cells were grown in a series of wells in a culture medium and in the presence of the compound to be tested, as in the determination of L1210 activity in a bioliquid assay reported above, but the compound was present in respective wells in a different concentration, the concentrations extending over an appropriate range. After a suitable incubation period, the lowest active dose for the compound in question was determined by comparing the diameter of each of the precipitation spots with that of a control containing only the culture and the cell suspension, a smaller diameter indicating growth inhibition (Table II).
# [8] = tested on: L1210 cells; test: L1210 activity (bioliquid assay), cytotoxicity; settings: Mus musculus
# Summary of the method: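 Suspension culture in RPMI with 15% FCS and 2-mercaptoethanol (60 μmol). Continuous compound exposure for 48 hours at 37° C under 5% CO2 in humidified air. Cell numbers then counted on an electronic microcell counter.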
# [9] = tested on: WiDr cells; colon tumour; test: In vitro panel of human tumour lines (TNO): WiDr; settings: about 72 hours; note: key: -: no inhibition of cell growth; +: total cell-kill
# Summary of the method: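 Cells in Dulbecco's medium with 10% foetal calf serum were seeded 48 h, then exposed continuously to increasing compound concentrations (final ethanol <1%) for about 72 h at 37° in 10% CO2. Crystal violet staining after fixation; inhibiting concentration estimated qualitatively.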
# [10] = Table I, bioliquid assay, read-out: ID-50 R-1
# [11] = L1210, bioliquid assay, duplicate experiment, read-out: LAD 2 (lowest active dose)
# [12] = L1210, bioliquid assay, read-out: LAD 1 (lowest active dose)
# [13] = L1210, Table I, bioliquid assay, 48 hours, read-out: ID-50 L1210
SMILES,activity at 0.1 µg/mL ([1]; 0.1 μg/ml) [%],activity at 1 µg/mL [1] [%],activity at 0.01 µg/mL ([2]; 0.01 μg/ml) [%],activity at 0.1 µg/mL ([2]; 0.1 μg/ml) [%],activity at 1 µg/mL [2] [%],activity at 0.01 µg/mL ([3]; 0.01 μg/ml) [%],activity at 0.1 µg/mL ([3]; 0.1 μg/ml) [%],activity at 1 µg/mL [3] [%],activity at 0.01 µg/mL ([4]; 0.01 μg/ml) [%],"IC50 [5, 10] [µg/mL]","in vitro activity score, T 24 ([6]; 0.01 μg/ml)","in vitro activity score, T 24 ([6]; 0.1 μg/ml)","minimal effective concentration [7, 11] [µg/mL]","minimal effective concentration [7, 12] [µg/mL]","in vitro activity score, WiDr ([9]; 0.01 μg/ml)","in vitro activity score, WiDr ([9]; 0.1 μg/ml)","in vitro activity score, WiDr ([9]; 1.0 μg/ml)","in vitro activity score, WiDr ([9]; 10 μg/ml)","in vitro activity score, T 24 ([6]; 1.0 μg/ml)","in vitro activity score, T 24 ([6]; 10 μg/ml)",also measured
"COC1=CC(=O)c2c(c(COC(C)=O)c(/C=C/COC(C)=O)n2C)C1=O [E.O. 1, 3-Acetoxymethyl-5-methoxy-1-methyl-2-[1H-indole-4,7-dione]prop-β-en-α-yl acetate]",68,0,71,24,3,99,0,0,108,2.3,-,-,1.02 to 2.05,1.02 to 2.05,-,-,-,+,,,"activity at 0.1 µg/mL ([4]; 0.1 μg/ml): 37%; activity at 1 µg/mL [4]: 21%; IC50 ([5]; Table VI, read-out: ID-50 R-1): 0.3 µg/mL; IC50 [8, 13]: 2.3 µg/mL"
"COC(=O)OC/C=C/c1c(COC(=O)OC)c2c(n1C)C(=O)C=C(OC)C2=O [E.O. 2, Methyl 5-methoxy-3-methoxycarbonyloxymethyl-1-methyl-2-[1H-indole-4,7 dione]prop-β-en-α-yl carbonate]",,,,,,,,,,0.4,-,-,1.02 to 2.05,1.02 to 2.05,-,-,-,+,-,+,"IC50 [8, 13]: 0.5 µg/mL"
"CC(=O)OC/C=C/c1c(COC(C)=O)c2c(n1C)C(=O)C=C(N1CC1)C2=O [E.O. 4, 3-Acetoxymethyl-5-aziridino-1-methyl-2-[1H-indole-4,7-dione]prop-β-en-α-yl acetate]",,,,,,,,,,,-,-,,,-,-,,+,+,+,"activity at 0.001 µg/mL [1]: 88%; activity at 0.01 µg/mL [1]: 88%; activity at 0.1 µg/mL [1]: 41%; activity at 0.001 µg/mL [2]: 86%; activity at 0.01 µg/mL [2]: 70%; activity at 0.1 µg/mL [2]: 11%; activity at 0.001 µg/mL [3]: 95%; activity at 0.01 µg/mL [3]: 46%; activity at 0.1 µg/mL [3]: 0%; activity at 0.001 µg/mL [4]: 51%; activity at 0.01 µg/mL [4]: 56%; activity at 0.1 µg/mL [4]: 56%; IC50 ([5]; read-out: ID-50 R-1, Table VIII): 0.025 µg/mL; minimal effective concentration ([7]; L1210, read-out: LAD 1 (lowest active dose)): 0.032 to 0.064 µg/mL; minimal effective concentration ([7]; L1210, read-out: LAD 2 (lowest active dose)): 0.064 µg/mL; IC50 ([8]; L1210, 48 h, read-out: ID-50 L1210, Table VIII): 1.6 µg/mL"
"Cn1c(/C=C/CO)c(CO)c2c1C(=O)C=C(N1CC1)C2=O [E.O. 9, 5-Aziridino-3-hydroxymethyl-1-methyl-2-[1H-indole-4,7-dione]prop-β-en-α-ol]",8,0,136,20,1,38,2,0,51,0.003,-,+,1.02,0.512 to 1.02,-,+,+,+,+,+,"activity at 0.01 µg/mL ([1]; 0.01 μg/ml): 123%; activity at 0.1 µg/mL ([4]; 0.1 μg/ml): 47%; activity at 1 µg/mL [4]: 9%; IC50 ([5]; Table VIII, read-out: ID-50 R-1): 0.0034 µg/mL; IC50 ([8]; L1210, 48 h, Table VIII, read-out: ID-50 L1210): 0.46 µg/mL"
